Laboratory results taken from EP0315467A2, “Pentamidine salts useful in the treatment and prophylaxis of pneumocystis carinii pneumonia” (LyphoMed, Inc., priority 1987, dated 1989).
Counter-ions that a name gives are not always drawn.

Columns and labels:
[1] = Solubility in water of pentamidine salts; format: physicochemical; settings: for Solubility in H₂O: Table I
[2] = background statement on the prior art; cited from earlier work

Compound	Solubility in H₂O [1]	further results
N=C(N)c1ccc(OCCCCCOc2ccc(C(=N)N)cc2)cc1 [Pentamidine Lactate]	100.3 mg/mL	water solubility ([1]; bound stated in the text): greater than 100 mg/mL
N=C(N)c1ccc(OCCCCCOc2ccc(C(=N)N)cc2)cc1 [Pentamidine Hydrochloride, reference compound]		solubility in water (in words) [2]: substantially water insoluble; Solubility in H₂O ([1]; Hydrochloride): 14.5 mg/mL
N=C(N)c1ccc(OCCCCCOc2ccc(C(=N)N)cc2)cc1 [Pentamidine Phosphate]	16.8 mg/mL	
N=C(N)c1ccc(OCCCCCOc2ccc(C(=N)N)cc2)cc1 [Pentamidine Sulfate]	1.4 mg/mL	
N=C(N)c1ccc(OCCCCCOc2ccc(C(=N)N)cc2)cc1 [Pentamidine Acetate]	17.0 mg/mL	
N=C(N)c1ccc(OCCCCCOc2ccc(C(=N)N)cc2)cc1 [Pentamidine Borate]	6.9 mg/mL	
N=C(N)c1ccc(OCCCCCOc2ccc(C(=N)N)cc2)cc1 [Pentamidine Gluconate]	114.8 mg/mL	solubility ([1]; bound stated in the text): > 100 mg/mL
N=C(N)c1ccc(OCCCCCOc2ccc(C(=N)N)cc2)cc1 [Pentamidine Nitrate]	1.8 mg/mL	
N=C(N)c1ccc(OCCCCCOc2ccc(C(=N)N)cc2)cc1 [Pentamidine Citrate]	0.6 mg/mL	
N=C(N)c1ccc(OCCCCCOc2ccc(C(=N)N)cc2)cc1 [Pentamidine Tartarate]	3.4 mg/mL	
